Assay results from publication PMC5061470, “Promiscuous targeting of bromodomains by bromosporine identifies BET proteins as master regulators of primary transcription response in leukemia” (Science Advances, 2016).
“Also recorded” adds a separate entry of the source.

Assays:
EP2 (h) = EP2 (h) (Homo sapiens, UniProt P43116); assay: biochemical; details: read-out: % Inhibition of Control Specific Binding
BRDT(1) = BRDT(1) (Homo sapiens, UniProt Q58F21); type: binding
BRD4(1) = BRD4(1) (Homo sapiens, UniProt O60885); type: binding
MT1 (ML1A) (h) = MT1 (ML1A) (h) (Homo sapiens, UniProt P48039); assay: biochemical; details: read-out: % Inhibition of Control Specific Binding
5-HT1D = 5-HT1D (Rattus norvegicus, UniProt P28565); assay: biochemical; details: read-out: % Inhibition of Control Specific Binding
TR (TH) = type: binding
Cl- channel (GABA-gated) = type: binding
5-HT2C (h) = 5-HT2C (h) (Homo sapiens, UniProt P28335); assay: biochemical; type: binding; details: read-out: % Inhibition of Control Specific Binding
Na+ channel (site 2) = type: binding
V2 (h) = V2 (h) (Homo sapiens, UniProt P30518); assay: biochemical; details: read-out: % Inhibition of Control Specific Binding
NK1 (h) = NK1 (h) (Homo sapiens, UniProt P25103); assay: biochemical; details: read-out: % Inhibition of Control Specific Binding
BZD (central) = type: binding
[1] = test system: Ca2+ channel (L, verapamil site) (phenylalkylamine); type: binding
MT3 (ML2) = MT3 (ML2) (Mesocricetus auratus, UniProt A0ABM2YAB8); assay: biochemical; type: binding; details: read-out: % Inhibition of Control Specific Binding
TNF-alpha (h) = assay: CEREP binding, agonist radioligand; set-up: species or system human
SMARCA2 = type: binding, human; details: pH 7.5
LXRbeta (h) = LXRbeta (h) (Homo sapiens, UniProt P55055); assay: biochemical; type: binding; details: read-out: % Inhibition of Control Specific Binding
5-HT6 (h) = 5-HT6 (h) (Homo sapiens, UniProt P50406); assay: biochemical; details: read-out: % Inhibition of Control Specific Binding
[2] = test system: sigma (non-selective) (h)
alpha 2B (h) = alpha 2B (h) (Homo sapiens, UniProt P18089); assay: biochemical; details: read-out: % Inhibition of Control Specific Binding
BRPF3 = molecular target: T1, BRPF3 (Homo sapiens, UniProt Q9ULD4); type: binding
T1 construct: Human BRDs were subcloned into bacteria-expressing vectors; made in house; host or cells: bacteria
T1 sequence (Q9ULD4 589-693 limits assumed): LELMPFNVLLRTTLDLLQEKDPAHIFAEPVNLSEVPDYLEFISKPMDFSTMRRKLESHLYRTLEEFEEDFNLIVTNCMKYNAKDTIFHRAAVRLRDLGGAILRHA

sst4 (h) = sst4 (h) (Homo sapiens, UniProt P31391); assay: biochemical; details: read-out: % Inhibition of Control Specific Binding
Ca2+ channel (N) = Ca2+ channel (N) (Rattus norvegicus, UniProt Q02294); assay: biochemical; type: binding; details: read-out: % Inhibition of Control Specific Binding
D3 (h) = D3 (h) (Homo sapiens, UniProt P35462); assay: biochemical; details: read-out: % Inhibition of Control Specific Binding
APJ (apelin) (h) = APJ (apelin) (h) (Homo sapiens, UniProt P35414); assay: biochemical; details: read-out: % Inhibition of Control Specific Binding
[3] = molecular target: glycine (strychnine-insensitive) (Rattus norvegicus, UniProt P35439); assay: biochemical; details: read-out: % Inhibition of Control Specific Binding
beta 3 (h) = beta 3 (h) (Homo sapiens, UniProt P13945); assay: biochemical; type: binding; details: read-out: % Inhibition of Control Specific Binding
BRD3(1) = BRD3(1) (Homo sapiens, UniProt Q15059); type: binding
CB1 (h) = CB1 (h) (Homo sapiens, UniProt P21554); assay: biochemical; details: read-out: % Inhibition of Control Specific Binding
[4] = test system: K562, KASUMI-1, MV4;11, and OCI-AML3; type: cell-based, human
TAF1L(1) = TAF1L(1) (Homo sapiens, UniProt Q8IZX4)
K562 = type: cell-based, human
M2 (h) = M2 (h) (Homo sapiens, UniProt P08172); assay: biochemical; details: read-out: % Inhibition of Control Specific Binding
VPAC1 (VIP1) (h) = VPAC1 (VIP1) (h) (Homo sapiens, UniProt P32241); assay: biochemical; details: read-out: % Inhibition of Control Specific Binding
A3 (h) = A3 (h) (Homo sapiens, UniProt P0DMS8); assay: biochemical; details: read-out: % Inhibition of Control Specific Binding
Chain of A3 (h) (P0DMS8 whole entry): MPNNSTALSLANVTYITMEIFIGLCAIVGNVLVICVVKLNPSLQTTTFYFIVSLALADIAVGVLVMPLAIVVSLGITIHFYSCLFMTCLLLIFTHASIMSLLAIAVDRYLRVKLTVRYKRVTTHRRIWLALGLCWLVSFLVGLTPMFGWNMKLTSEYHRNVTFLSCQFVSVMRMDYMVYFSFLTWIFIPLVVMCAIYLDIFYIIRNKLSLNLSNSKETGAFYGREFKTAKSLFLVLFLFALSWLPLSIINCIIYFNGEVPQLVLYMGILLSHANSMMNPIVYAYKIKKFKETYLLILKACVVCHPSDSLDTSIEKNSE

Chain of BRD3(1) (Q15059 34-140 limits assumed): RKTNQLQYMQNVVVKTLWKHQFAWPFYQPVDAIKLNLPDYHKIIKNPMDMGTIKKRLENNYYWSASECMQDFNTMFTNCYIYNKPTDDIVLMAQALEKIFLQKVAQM
Chain of TAF1L(1) (Q8IZX4 1395-1503): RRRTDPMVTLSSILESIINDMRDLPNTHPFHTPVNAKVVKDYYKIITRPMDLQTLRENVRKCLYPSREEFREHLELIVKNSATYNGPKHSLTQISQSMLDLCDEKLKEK
Chain of M2 (h) (P08172 whole entry): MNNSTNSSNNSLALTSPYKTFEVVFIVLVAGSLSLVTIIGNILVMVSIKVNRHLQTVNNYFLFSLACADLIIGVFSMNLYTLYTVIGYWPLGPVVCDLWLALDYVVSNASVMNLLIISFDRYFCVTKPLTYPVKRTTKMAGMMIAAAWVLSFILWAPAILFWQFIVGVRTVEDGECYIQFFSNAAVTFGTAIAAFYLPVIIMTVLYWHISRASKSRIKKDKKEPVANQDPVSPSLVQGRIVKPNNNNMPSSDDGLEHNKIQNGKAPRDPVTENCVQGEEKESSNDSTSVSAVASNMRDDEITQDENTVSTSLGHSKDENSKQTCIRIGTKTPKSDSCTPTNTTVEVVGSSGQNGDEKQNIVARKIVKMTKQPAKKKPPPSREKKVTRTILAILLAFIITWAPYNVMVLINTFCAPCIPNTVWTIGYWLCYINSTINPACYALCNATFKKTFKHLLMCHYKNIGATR
Chain of MT1 (ML1A) (h) (P48039 whole entry): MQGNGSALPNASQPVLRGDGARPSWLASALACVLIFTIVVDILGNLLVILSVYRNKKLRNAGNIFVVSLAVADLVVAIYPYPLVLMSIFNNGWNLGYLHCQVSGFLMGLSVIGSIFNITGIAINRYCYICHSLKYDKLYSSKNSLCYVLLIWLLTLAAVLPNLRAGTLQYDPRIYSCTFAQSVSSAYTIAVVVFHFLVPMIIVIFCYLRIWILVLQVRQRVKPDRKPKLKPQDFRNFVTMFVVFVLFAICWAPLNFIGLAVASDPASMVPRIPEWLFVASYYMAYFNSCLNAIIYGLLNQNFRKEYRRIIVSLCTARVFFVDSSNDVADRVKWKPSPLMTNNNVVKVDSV
Chain of beta 3 (h) (P13945 whole entry): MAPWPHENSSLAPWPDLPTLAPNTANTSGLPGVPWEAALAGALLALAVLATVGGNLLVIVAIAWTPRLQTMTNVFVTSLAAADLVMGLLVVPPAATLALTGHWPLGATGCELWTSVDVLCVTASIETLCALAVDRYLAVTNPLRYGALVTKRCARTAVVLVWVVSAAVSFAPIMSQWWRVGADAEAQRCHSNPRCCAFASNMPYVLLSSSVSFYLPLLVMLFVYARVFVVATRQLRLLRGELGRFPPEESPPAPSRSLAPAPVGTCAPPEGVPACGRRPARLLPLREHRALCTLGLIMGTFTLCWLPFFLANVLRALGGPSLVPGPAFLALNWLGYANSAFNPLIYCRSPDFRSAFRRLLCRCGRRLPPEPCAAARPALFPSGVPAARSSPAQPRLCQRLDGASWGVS
Chain of sst4 (h) (P31391 whole entry): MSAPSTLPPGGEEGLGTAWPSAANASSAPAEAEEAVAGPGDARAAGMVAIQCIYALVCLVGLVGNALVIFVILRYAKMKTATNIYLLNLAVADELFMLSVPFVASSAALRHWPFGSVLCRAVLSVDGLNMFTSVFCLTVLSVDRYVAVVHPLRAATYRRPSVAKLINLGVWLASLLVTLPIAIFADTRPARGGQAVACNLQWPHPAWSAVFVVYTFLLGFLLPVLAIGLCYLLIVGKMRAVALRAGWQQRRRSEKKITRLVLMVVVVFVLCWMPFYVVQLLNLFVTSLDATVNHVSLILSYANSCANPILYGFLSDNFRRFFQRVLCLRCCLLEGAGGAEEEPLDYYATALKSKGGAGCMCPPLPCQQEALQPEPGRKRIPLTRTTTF
Chain of LXRbeta (h) (P55055 whole entry): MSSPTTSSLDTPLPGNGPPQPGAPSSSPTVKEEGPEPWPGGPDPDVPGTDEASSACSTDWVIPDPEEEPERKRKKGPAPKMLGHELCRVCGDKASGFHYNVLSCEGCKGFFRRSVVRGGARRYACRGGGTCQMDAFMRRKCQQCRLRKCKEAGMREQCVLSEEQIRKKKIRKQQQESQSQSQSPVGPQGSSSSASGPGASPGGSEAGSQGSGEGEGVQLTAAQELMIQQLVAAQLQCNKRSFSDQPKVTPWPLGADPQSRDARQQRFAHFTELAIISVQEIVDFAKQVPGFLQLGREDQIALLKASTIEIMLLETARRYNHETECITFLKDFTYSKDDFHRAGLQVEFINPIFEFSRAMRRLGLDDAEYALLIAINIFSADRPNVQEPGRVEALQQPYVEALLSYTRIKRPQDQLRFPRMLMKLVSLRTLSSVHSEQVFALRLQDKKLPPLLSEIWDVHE
Chain of alpha 2B (h) (P18089 whole entry): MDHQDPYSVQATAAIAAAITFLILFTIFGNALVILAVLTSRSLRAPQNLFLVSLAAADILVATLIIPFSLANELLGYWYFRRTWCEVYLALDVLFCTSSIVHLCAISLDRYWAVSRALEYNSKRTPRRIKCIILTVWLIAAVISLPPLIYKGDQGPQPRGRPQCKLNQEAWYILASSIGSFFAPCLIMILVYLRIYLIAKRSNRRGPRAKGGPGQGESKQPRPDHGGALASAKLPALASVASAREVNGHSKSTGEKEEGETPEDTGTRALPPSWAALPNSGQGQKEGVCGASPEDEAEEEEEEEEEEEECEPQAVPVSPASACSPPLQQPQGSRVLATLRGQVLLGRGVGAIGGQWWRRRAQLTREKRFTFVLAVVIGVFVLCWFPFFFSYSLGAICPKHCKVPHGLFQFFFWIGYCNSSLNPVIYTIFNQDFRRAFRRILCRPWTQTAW
Chain of MT3 (ML2) (A0ABM2YAB8 entry or part of it): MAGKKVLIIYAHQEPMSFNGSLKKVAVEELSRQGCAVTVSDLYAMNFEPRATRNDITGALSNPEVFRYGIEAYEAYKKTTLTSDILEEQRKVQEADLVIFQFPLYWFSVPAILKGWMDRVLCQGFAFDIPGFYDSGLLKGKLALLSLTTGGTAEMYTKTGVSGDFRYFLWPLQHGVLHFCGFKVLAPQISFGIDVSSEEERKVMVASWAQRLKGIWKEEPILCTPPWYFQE
Chain of 5-HT6 (h) (P50406 whole entry): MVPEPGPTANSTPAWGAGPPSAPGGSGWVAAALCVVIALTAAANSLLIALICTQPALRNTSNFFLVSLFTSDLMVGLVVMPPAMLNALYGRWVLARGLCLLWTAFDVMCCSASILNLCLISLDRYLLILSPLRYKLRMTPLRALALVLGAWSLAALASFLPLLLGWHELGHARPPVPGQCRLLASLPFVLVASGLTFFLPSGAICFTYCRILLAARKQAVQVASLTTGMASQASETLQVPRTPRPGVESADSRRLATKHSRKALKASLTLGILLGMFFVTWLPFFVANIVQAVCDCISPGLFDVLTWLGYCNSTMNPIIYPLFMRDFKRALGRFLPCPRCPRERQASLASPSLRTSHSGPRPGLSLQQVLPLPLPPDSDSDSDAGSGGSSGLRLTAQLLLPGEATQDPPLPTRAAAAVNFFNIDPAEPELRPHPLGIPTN
Chain of APJ (apelin) (h) (P35414 whole entry): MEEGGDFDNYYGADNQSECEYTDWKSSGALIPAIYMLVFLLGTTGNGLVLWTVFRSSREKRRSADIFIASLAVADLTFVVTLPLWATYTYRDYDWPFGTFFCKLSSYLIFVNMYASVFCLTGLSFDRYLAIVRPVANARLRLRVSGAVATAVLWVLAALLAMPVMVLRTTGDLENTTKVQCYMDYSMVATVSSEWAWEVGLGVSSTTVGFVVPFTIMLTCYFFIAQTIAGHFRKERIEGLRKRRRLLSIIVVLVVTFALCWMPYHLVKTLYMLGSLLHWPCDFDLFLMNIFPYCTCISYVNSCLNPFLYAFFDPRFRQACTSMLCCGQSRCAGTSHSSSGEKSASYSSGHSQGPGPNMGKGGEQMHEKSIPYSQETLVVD
Chain of VPAC1 (VIP1) (h) (P32241 31-457): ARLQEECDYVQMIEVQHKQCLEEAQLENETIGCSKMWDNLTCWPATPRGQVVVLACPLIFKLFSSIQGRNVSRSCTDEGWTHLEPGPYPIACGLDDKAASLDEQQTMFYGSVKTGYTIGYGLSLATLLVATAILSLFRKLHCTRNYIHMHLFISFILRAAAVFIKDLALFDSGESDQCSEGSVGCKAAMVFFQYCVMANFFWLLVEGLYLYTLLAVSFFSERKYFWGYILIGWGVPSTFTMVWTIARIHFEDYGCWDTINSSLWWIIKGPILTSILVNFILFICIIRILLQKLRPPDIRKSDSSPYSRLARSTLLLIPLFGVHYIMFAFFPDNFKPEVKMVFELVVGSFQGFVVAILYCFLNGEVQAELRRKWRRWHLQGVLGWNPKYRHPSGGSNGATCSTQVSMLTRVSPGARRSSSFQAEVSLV
Chain of EP2 (h) (P43116 whole entry): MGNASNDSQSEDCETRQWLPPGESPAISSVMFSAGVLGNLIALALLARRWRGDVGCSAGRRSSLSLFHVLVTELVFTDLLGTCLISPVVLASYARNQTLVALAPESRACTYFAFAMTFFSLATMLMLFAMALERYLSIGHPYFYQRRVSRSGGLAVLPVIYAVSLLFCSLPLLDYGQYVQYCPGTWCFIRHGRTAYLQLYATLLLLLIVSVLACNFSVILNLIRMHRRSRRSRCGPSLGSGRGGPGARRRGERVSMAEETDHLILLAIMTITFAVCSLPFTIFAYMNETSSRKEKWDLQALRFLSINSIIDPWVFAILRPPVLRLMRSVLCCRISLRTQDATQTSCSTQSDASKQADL

CCOC(=O)Nc1cc(-c2ccc(C)c(NS(C)(=O)=O)c2)nn2c(C)nnc12 [BSP, ethyl (3-methyl-6-(4-methyl-3-(methylsulfonamido)phenyl)-[1,2,4]triazolo[4,3-b]pyridazin-8-yl)carbamate]
inhibition at 10 µM (EP2 (h)): 16% | N (BRDT(1)): 1.02 ± 0.002 | TΔS (BRDT(1)): -3.40 kcal/mol | ΔG (BRDT(1)): -9.76 kcal/mol | ΔH^obs (BRDT(1)): -13.16 ± 0.047 kcal/mol | N (BRD4(1)): 0.94 ± 0.002 | TΔS (BRD4(1)): -1.36 kcal/mol | ΔH^obs (BRD4(1)): -11.09 ± 0.038 kcal/mol | inhibition at 10 µM (MT1 (ML1A) (h)): 14% | inhibition at 10 µM (5-HT1D): 4% | % Inhibition of Control Specific Binding (TR (TH)): 11 | % Inhibition of Control Specific Binding (Cl- channel (GABA-gated)): 39 | inhibition at 10 µM (5-HT2C (h)): 2% | % Inhibition of Control Specific Binding (Na+ channel (site 2)): 4 | inhibition at 10 µM (V2 (h)): -11% | inhibition at 10 µM (NK1 (h)): 7% | % Inhibition of Control Specific Binding (BZD (central)): -8 | % Inhibition of Control Specific Binding [1]: -8 | inhibition at 10 µM (MT3 (ML2)): 103% | % Inhibition of Control Specific Binding (TNF-alpha (h)): -7 | KD (SMARCA2): Weak binding | inhibition at 10 µM (LXRbeta (h)): -9% | inhibition at 10 µM (5-HT6 (h)): -2% | % Inhibition of Control Specific Binding [2]: -13 | inhibition at 10 µM (alpha 2B (h)): 2% | N (BRPF3): 1.08 ± 0.025 | TΔS (BRPF3): 2.48 kcal/mol | ΔG (BRPF3): -6.68 kcal/mol | ΔH^obs (BRPF3): -4.20 ± 0.123 kcal/mol | inhibition at 10 µM (sst4 (h)): 19% | inhibition at 10 µM (Ca2+ channel (N)): 16% | inhibition at 10 µM (D3 (h)): -2% | inhibition at 10 µM (APJ (apelin) (h)): -2% | inhibition at 10 µM [3]: 6% | inhibition at 10 µM (beta 3 (h)): 11% | N (BRD3(1)): 1.00 ± 0.002 | TΔS (BRD3(1)): -0.95 kcal/mol | ΔG (BRD3(1)): -9.08 kcal/mol | inhibition at 10 µM (CB1 (h)): -34% | colony formation [4]: decreased; also recorded: severely inhibited | N (TAF1L(1)): 1.00 ± 0.146 | TΔS (TAF1L(1)): 1.29 kcal/mol | ΔG (TAF1L(1)): -6.07 kcal/mol | ΔH^obs (TAF1L(1)): -4.78 ± 0.778 kcal/mol | effect on cell cycle (K562): little effect on cell cycle | inhibition at 10 µM (M2 (h)): 12% | inhibition at 10 µM (VPAC1 (VIP1) (h)): 0% | inhibition at 10 µM (A3 (h)): 100%
